Data set [1] is described as follows: physchem. To be noted: organic solvent or mixture.
Data set [2] in a line: Solubility of terephthalaldehyde and major impurities in p-xylene and DMSO. To be noted: p-xylene, organic solvent or mixture.

The source of these data is US7910780B2, “Method for purifying terephthalaldehyde” (LG Chem, Ltd., priority 2006, dated 2011).

What is called solubility is the concentration that dissolves in the medium under given conditions. Consider `O=Cc1ccc(O)cc1` [4-HBA, 4-hydroxybenzaldehyde], for which the solubility was less than 2000 µg/mL in data set [1] (25 °C) and less than 20000 µg/mL in data set [1] (100 °C).
In the case of `O=Cc1ccc(C(=O)O)cc1` [4-CBA, 4-carboxybenzaldehyde], the solubility was less than 2000 µg/mL in data set [2] (25 °C, in p-xylene (25° C.)) and less than 20000 µg/mL in data set [2] (100 °C, in p-xylene (100° C.)).
As to `Oc1ccc(O)cc1` [HQ, hydroquinone], the solubility in data set [1] (25 °C) and in data set [1] (100 °C) was less than 5000 µg/mL throughout.
As for `O=C(O)c1ccc(C(=O)O)cc1` [TPA, terephthalic acid], in data set [1] (100 °C), the solubility was less than 20000 µg/mL.
